Laboratory results from patent US10420850B2, “Method of imaging with a chelating agent” (ENDOCYTE, INC., priority 2015, dated 2019).

Test system: FR positive human xenograft models
Experiment: Mouse imaging: ^99mTc biodistribution and microSPECT/CT
Format: in vivo
Conditions: intravenous, tumor-bearing mice
Method: Etarfolatide kits were used for the preparation of ^99mTc-chelated radioactive drug substance. Radiochemical purity of ^99mTc-etarfolatide was determined by HPLC attached to a radiodetector. ^99mTc-etarfolatide was investigated in vivo using mice bearing FR positive human xenograft models. Test articles were administered intravenously in mice via the lateral tail vein. ^99mTc biodistribution was determined by removing selected tissues and measuring their radioactivity content in an automatic gamma-counter. High resolution three dimensional images of the radiolabel were obtained on a dual microSPECT/CT system.

With `[NH-][C@@H](CNC(=O)CC[C@@H](NC(=O)c1ccc(NCc2cnc3nc(N)[nH]c(=O)c3n2)cc1)C(=O)O)C(=O)[N-][C@@H](CC(=O)O)C(=O)[N-][C@@H](C[S-])C(=O)O.[O]=[Tc+4]` [^99mTc-etarfolatide] as the compound, how does the “Time after which levels in normal FR-negative tissues had cleared to near baseline” value read?
Its value is 4 to 8 h.

And the “Time tumor retention remained near maximum” value?
Its value is “approximately 18 hours”.

And the “Time of peak tissue levels post injection” value (FR-expressing tumor and kidney)?
The value was 1 h.
